Results reported in paper PMC4538536, “In Silico-Based High-Throughput Screen for Discovery of Novel Combinations for Tuberculosis Treatment” (Antimicrobial Agents and Chemotherapy, 2015).
≈ marks a conversion by molar mass, not a printed value. Read-outs that look alike come from different tables or passages of the source.

Tests used:
[1] = In vivo pharmacokinetics in infected mice (plasma, LC-MS/MS); parameters: species or system BALB/c mice; conditions: BALB/c, mouse, plasma, po, steady state, infected mice
Description: The drugs were formulated in 0.5% hydroxypropyl methyl cellulose (HPMC)–0.1% Tween 80 suspensions as 3- or 4-drug combinations. Formulations were prepared by weighing and adding each compound to the bottle, according to the design. Formulation vehicle was added, and the suspension was stirred overnight. Only uniform suspensions were used, while those that precipitated were abandoned. Formulations were prepared every week, and compound stability was estimated at the end of the week. Pharmacokinetics (PK) analysis was performed on infected mice on the 20th day of dosing. Blood samples were collected from each mouse at 0.5, 2, 4, 6, and 24 h after compound administration. Blood samples of about 30 μl were collected from mice in all groups by serial sampling via the saphenous vein into Microvette CB300 tubes (Starstedt, Germany) coated with EDTA, and plasma (10 μl) was separated following centrifugation. Plasma samples were stored at –20°C until analysis using liquid chromatography-tandem mass spectrometry (LC-MS/MS).
A 1-mg/ml stock solution of each compound was prepared in dimethyl sulfoxide (DMSO) for all of the analytes except PZA and LZD, for which the stock solution was 10 mg/ml in DMSO, and RIF, for which the stock solution was prepared in 50% acetonitrile in water. Three different sets of calibration standard (CS) combinations were prepared by 2-fold dilution of the stock solutions. CS set 1 contained analytes CLO, BDQ, PA824, PZA, and SQ109, CS set 2 contained analytes BTZ043, MXF, THI, EMB, and PZA, and CS set 3 contained LZD, INH, RIF, and PZA. A 16-point calibration curve was utilized for all analytes, and the standard curves ranged from 0.0005 to 20 μg/ml except for PZA and LZD, for which the standard curve range was 0.006 to 200 μg/ml. Plasma samples were precipitated by adding chilled acetonitrile (1:10, vol/vol) containing carbamazepine as an internal standard (10 ng/ml). Samples were vortexed and then centrifuged at 4,000 rpm for 30 min at 10°C. The resulting supernatant was mixed with the mobile phase (50% acetonitrile in water with 0.1% formic acid). Five microliters of the sample was injected on to a liquid chromatographic system (Acquity ultraperformance liquid chromatography [UPLC] system, Waters, Milford, MA) coupled to a triple-quadrupole mass spectrometer (Xevo TQ-S; Waters, Milford, MA). Samples were separated on an LC column (ACE 3 C18, 50 by 4.6 mm, 3 μm particle size; Advanced Chromatography Technologies, Aberdeen, Scotland) by isocratic elution with 40 parts of 20 mM ammonium formate containing 0.1% (vol/vol) formic acid and 60 parts of acetonitrile at a flow rate of 0.5 ml/min with a run time of 4 min. Samples were acquired in positive ion mode and detected by multiple reaction monitoring (MRM). The concentrations of the analyte were determined from a standard curve obtained by plotting known concentrations of the analyte against peak area ratios (analyte/internal standard peak response).
PK analyses of the plasma concentration-time relationships were performed with Phoenix software (version 6.2; Pharsight, USA). A noncompartmental analysis program, model 200, was used to calculate PK parameters. The maximum concentration of drug in plasma (Cmax), time to Cmax (Tmax), elimination half-life (t1/2), and area under the concentration-time curve (AUC) from time zero to infinity (AUC0–∞) were estimated. AUC was computed using the trapezoidal rule (linear up and log down), and the AUC0–∞ was considered only when the extrapolated AUC was not more than 20% of the original value. A minimum of three sample points in the terminal slope were used to calculate half-life.

[2] = system: M. tuberculosis H37Rv; test: MIC determination, resazurin-based microplate assay; type: cell-based, Mycobacterium tuberculosis; conditions: Mycobacterium tuberculosis, single drug
[3] = system: M. tuberculosis H37Rv; test: In vitro bactericidal-effect analysis (CFU enumeration of checkerboard wells); type: cell-based, Mycobacterium tuberculosis; conditions: single drug at its MIC (FIC of 1); positive = reduction in CFU
Description: For determining the extent of the bactericidal effect, sample wells which remained blue in the resazurin microtiter assay (REMA) and whose ΣFICs were within the synergistic-to-additive range (<0.7 for doublets and <1.5 for triplets) were plated on Middlebrook 7H10 agar medium and incubated at 37°C for 21 to 28 days, following which bacterial colonies were enumerated to obtain the net reduction in CFU in comparison to the counts for the untreated controls at the start of drug testing, as well as to that achieved when M. tuberculosis was exposed to each drug alone.

[4] = 150 mg/kg, Group 7 quartet PA824 50/BDQ 25/MXF 400/PZA 150 mg/kg oral, read-out: AUC0-24 in Quartet
[5] = 150 mg/kg, Group 7 quartet PA824 50/BDQ 25/MXF 400/PZA 150 mg/kg oral, read-out: Cmax in Quartet
[6] = 400 mg/kg, Group 7 triplet PA824 50/BDQ 25/MXF 400 mg/kg oral, read-out: AUC0-24 in Triplet
[7] = 400 mg/kg, Group 7 triplet PA824 50/BDQ 25/MXF 400 mg/kg oral, read-out: Cmax in Triplet

COc1c(N2C[C@@H]3CCCN[C@@H]3C2)c(F)cc2c(=O)c(C(=O)O)cn(C3CC3)c12 [Moxifloxacin]
AUC(0-t) ([1]; 150 mg/kg, Group 3 quartet BTZ043 37.5/SQ109 25/MXF 200/PZA 150 mg/kg oral, read-out: AUC0-24 in Quartet): 13300 ± 3100 ng·h/mL | Cmax ([1]; 150 mg/kg, Group 3 quartet BTZ043 37.5/SQ109 25/MXF 200/PZA 150 mg/kg oral, read-out: Cmax in Quartet): 3900 ± 600 ng/mL | AUC(0-t) [1, 4]: 76300 ± 13900 ng·h/mL | Cmax [1, 5]: 5100 ± 700 ng/mL | AUC(0-t) ([1]; 200 mg/kg, Group 3 triplet BTZ043 37.5/SQ109 25/MXF 200 mg/kg oral, read-out: AUC0-24 in Triplet): 12100 ± 3500 ng·h/mL | Cmax ([1]; 200 mg/kg, Group 3 triplet BTZ043 37.5/SQ109 25/MXF 200 mg/kg oral, read-out: Cmax in Triplet): 2200 ± 900 ng/mL | AUC(0-t) [1, 6]: 29800 ± 6600 ng·h/mL | Cmax [1, 7]: 4600 ± 800 ng/mL | MIC [2]: 0.02 µM (≈ 0.00803 µg/mL) | ΔLog10 CFU/ml at the MIC [3]: 1.40 Log10 CFU/ml

O=[N+]([O-])c1cn2c(n1)OC[C@@H](OCc1ccc(OC(F)(F)F)cc1)C2 [PA824]
AUC(0-t) ([1]; 50 mg/kg, Group 1 triplet CFZ 20/BDQ 25/PA824 50 mg/kg oral, read-out: AUC0-24 in Triplet): 76700 ± 18500 ng·h/mL | Cmax ([1]; 50 mg/kg, Group 1 triplet CFZ 20/BDQ 25/PA824 50 mg/kg oral, read-out: Cmax in Triplet): 11200 ± 2400 ng/mL | AUC(0-t) ([1]; 50 mg/kg, Group 2 triplet SQ109 25/BDQ 25/PA824 50 mg/kg oral, read-out: AUC0-24 in Triplet): 86200 ± 8600 ng·h/mL | Cmax ([1]; 50 mg/kg, Group 2 triplet SQ109 25/BDQ 25/PA824 50 mg/kg oral, read-out: Cmax in Triplet): 9300 ± 2300 ng/mL | AUC(0-t) ([1]; 100 mg/kg, Group 8 triplet PA824 50/BDQ 25/EMB 100 mg/kg oral, read-out: AUC0-24 in Triplet): 119000 ± 13800 ng·h/mL | Cmax ([1]; 100 mg/kg, Group 8 triplet PA824 50/BDQ 25/EMB 100 mg/kg oral, read-out: Cmax in Triplet): 13300 ± 500 ng/mL | AUC(0-t) ([1]; 150 mg/kg, Group 1 quartet CFZ 20/BDQ 25/PA824 50/PZA 150 mg/kg oral, read-out: AUC0-24 in Quartet): 60900 ± 8000 ng·h/mL | Cmax ([1]; 150 mg/kg, Group 1 quartet CFZ 20/BDQ 25/PA824 50/PZA 150 mg/kg oral, read-out: Cmax in Quartet): 7800 ± 1100 ng/mL | AUC(0-t) ([1]; 150 mg/kg, Group 2 quartet SQ109 25/BDQ 25/PA824 50/PZA 150 mg/kg oral, read-out: AUC0-24 in Quartet): 60700 ± 10000 ng·h/mL | Cmax ([1]; 150 mg/kg, Group 2 quartet SQ109 25/BDQ 25/PA824 50/PZA 150 mg/kg oral, read-out: Cmax in Quartet): 7300 ± 1100 ng/mL | AUC(0-t) [1, 4]: 92100 ± 12700 ng·h/mL | Cmax [1, 5]: 6000 ± 800 ng/mL | AUC(0-t) ([1]; 150 mg/kg, Group 8 quartet PA824 50/BDQ 25/EMB 100/PZA 150 mg/kg oral, read-out: AUC0-24 in Quartet): 66400 ± 19000 ng·h/mL | Cmax ([1]; 150 mg/kg, Group 8 quartet PA824 50/BDQ 25/EMB 100/PZA 150 mg/kg oral, read-out: Cmax in Quartet): 9800 ± 3600 ng/mL | AUC(0-t) [1, 6]: 134000 ± 41700 ng·h/mL | Cmax [1, 7]: 8400 ± 1000 ng/mL | MIC [2]: 1.09 µM (≈ 0.392 µg/mL) | ΔLog10 CFU/ml at the MIC [3]: 1.07 Log10 CFU/ml

CO[C@H]1/C=C/O[C@@]2(C)Oc3c(C)c(O)c4c(O)c(c(/C=N/N5CCN(C)CC5)c(O)c4c3C2=O)NC(=O)/C(C)=C\C=C\[C@H](C)[C@H](O)[C@@H](C)[C@@H](O)[C@@H](C)[C@H](OC(C)=O)[C@@H]1C [Rifampin]
AUC(0-t) ([1]; 100 mg/kg, Ref. regimen triplet INH 30/RIF 10/EMB 100 mg/kg oral, read-out: AUC0-24 in Triplet): 25400 ± 7300 ng·h/mL | Cmax ([1]; 100 mg/kg, Ref. regimen triplet INH 30/RIF 10/EMB 100 mg/kg oral, read-out: Cmax in Triplet): 4900 ± 1300 ng/mL | AUC(0-t) ([1]; 150 mg/kg, Ref. regimen quartet INH 30/RIF 10/EMB 100/PZA 150 mg/kg oral, read-out: AUC0-24 in Quartet): 22200 ± 8600 ng·h/mL | Cmax ([1]; 150 mg/kg, Ref. regimen quartet INH 30/RIF 10/EMB 100/PZA 150 mg/kg oral, read-out: Cmax in Quartet): 5500 ± 3000 ng/mL | MIC [2]: 0.009 µM (≈ 0.00741 µg/mL) | ΔLog10 CFU/ml at the MIC [3]: 1.24 Log10 CFU/ml

CC(=O)Nc1ccc(/C=N/NC(N)=S)cc1 [Thiacetazone]
AUC(0-t) ([1]; 25 mg/kg, Group 6 triplet BTZ043 37.5/THI 800/SQ109 25 mg/kg oral, read-out: AUC0-24 in Triplet): 87000 ± 52100 ng·h/mL | Cmax ([1]; 25 mg/kg, Group 6 triplet BTZ043 37.5/THI 800/SQ109 25 mg/kg oral, read-out: Cmax in Triplet): 8500 ± 2800 ng/mL | AUC(0-t) ([1]; 150 mg/kg, Group 6 quartet BTZ043 37.5/THI 800/SQ109 25/PZA 150 mg/kg oral, read-out: AUC0-24 in Quartet): 68000 ± 16000 ng·h/mL | Cmax ([1]; 150 mg/kg, Group 6 quartet BTZ043 37.5/THI 800/SQ109 25/PZA 150 mg/kg oral, read-out: Cmax in Quartet): 5100 ± 400 ng/mL | MIC [2]: 8.47 µM (≈ 2 µg/mL) | ΔLog10 CFU/ml at the MIC [3]: 0.76 Log10 CFU/ml
